Values of other authors, collected in patent US12622903B2, “Drug products for intranasal administration and uses thereof” (Summit Biosciences Inc., priority 2020, dated 2026).

System: opioid overdose

C=CCN1CC[C@]23c4c5ccc(O)c4O[C@H]2C(=O)CC[C@@]3(O)[C@H]1C5 [naloxone, 17-allyl-4,5a-epoxy-3,14-dihydroxymorphinan-6-one]
participants reporting serious adverse effects (DOPE Project participants): < 1%
overdose events reported reversed (of 399 overdose events where naloxone was used, participant reports): 89%
